Data as given in US7829560B2, “1,4-disubstituted naphthalenes as inhibitors of P38 MAP kinase” (Arqule, Inc., priority 2004, dated 2010).
Values joined by “and” are separate entries in the source; they are usually repeats but may differ in a detail not shown here. Identical values can stand only once.

Tests used:
[1] = biological target: T1, p38α (Homo sapiens, UniProt Q16539); assay: p38 MAP Kinase assay: inhibition of ATF2 phosphorylation, ELISA; format: biochemical; settings: ATF2 phosphorylation; read-out: [ENZ] P38 ALPHA, IC50, ELISA
T1 construct: p38 MAP Kinases are recombinant human full-length proteins with an amino-terminal GST fusion; GST (N); purchased Upstate Biotechnology Inc; host or cells: E. coli
Outline: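 In vitro phosphorylation of ATF2 at Thr69 by recombinant human GST-p38 MAP kinase, read by anti-phospho-ATF2 ELISA at 450 nm. Enzyme and compound pre-incubated 15 min at RT, then 30 min reaction at 37 °C with 40 μM ATP and 1.25 μM ATF2; buffer with or without 1% HSA (Method II or I).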

[2] = test system: TNFα release from THP-1 cells; assay: Inhibition of TNFα release from LPS-stimulated THP-1 cells, ELISA; format: cell-based; settings: Homo sapiens, THP-1, THP-1 cells, read-out: [CELL] THP-1, IC50, TNF ALPHA, ELISA
Outline: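 TNFα released into supernatant after 18 h of 10 μg/ml LPS stimulation was quantified by ELISA and IC50 taken as 50% reduction by non-linear regression. THP-1 cells (10^6/ml; medium with 10% FBS, serum-free or 1% HSA) saw compound for 30 min at 37 °C beforehand; final DMSO ≤0.5%.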

T1 sequence (Q16539 whole entry, the tested form may be a part): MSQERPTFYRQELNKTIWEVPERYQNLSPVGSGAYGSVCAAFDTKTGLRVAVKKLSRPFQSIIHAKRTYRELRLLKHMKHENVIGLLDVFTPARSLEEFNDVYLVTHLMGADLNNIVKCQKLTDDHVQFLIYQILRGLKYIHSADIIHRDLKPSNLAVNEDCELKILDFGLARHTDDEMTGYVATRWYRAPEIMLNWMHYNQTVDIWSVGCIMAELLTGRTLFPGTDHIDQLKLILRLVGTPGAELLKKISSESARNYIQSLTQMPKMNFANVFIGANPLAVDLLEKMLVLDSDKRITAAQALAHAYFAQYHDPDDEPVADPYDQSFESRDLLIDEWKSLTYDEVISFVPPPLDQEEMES

Row | IC50 [1] | melting point | IC50 [2] | SMILES
1 | 4810 nM | 70 to 72 °C |  | O=C(Nc1ccc(OCCCN2CCC3(CC2)OCCO3)c2ccccc12)c1cc(F)cc(N2CCCCC2)c1 [Compound B166, N-{4-[3-(1,4-Dioxa-8-aza-spiro[4.5]dec-8-yl)-propoxy]-naphthalen-1-yl}-3-fluoro-5-piperidin-1-yl-benzamide]
2 | 4040 nM | 152 to 153 °C |  | O=C(Nc1ccc(OCc2ccoc2)c2ccccc12)c1cc(F)cc(N2CCCCC2)c1 [Compound B180, 3-Fluoro-N-[4-(3-furylmethoxy)-1-naphthyl]-5-piperidin-1-ylbenzamide]
3 | 2350 nM | 161 to 162 °C |  | O=C(Nc1ccc(OCCN2CCCC2=O)c2ccccc12)c1cc(F)cc(N2CCCCC2)c1 [Compound B181, 3-Fluoro-N-{4-[2-(2-oxopyrrolidin-1-yl)ethoxy]-1-naphthyl}-5-piperidin-1-ylbenzamide]
4 | 52.7 nM and 61 nM | 157 to 159 °C |  | O=C(Nc1ccc(OCc2ccncc2)c2ccccc12)c1cc(F)cc(N2CCOCC2)c1 [Compound B191, 3-Fluoro-5-morpholin-4-yl-N-[4-(pyridin-4-ylmethoxy)-1-naphthyl]benzamide]
5 | 6550 nM | 172 to 173 °C |  | O=C(Nc1ccc(OCCN2CCCC2=O)c2ccccc12)c1cc(F)cc(N2CCOCC2)c1 [Compound B224, 3-Fluoro-5-morpholin-4-yl-N-{4-[2-(2-oxopyrrolidin-1-yl)ethoxy]-1-naphthyl}benzamide]
6 | 5390 nM | 75 to 77 °C |  | O=C(Nc1ccc(OCCN2CCOCC2)c2ccccc12)c1cc(F)cc(OC2CCOCC2)c1 [Compound B226, 3-Fluoro-N-[4-(2-morpholin-4-ylethoxy)-1-naphthyl]-5-(tetrahydro-2H-pyran-4-yloxy)benzamide]
7 | > 10000 nM |  | > 10000 nM | Cc1cc(C)c(-c2cccc(C(=O)Nc3ccc(OCCN4CCOCC4)c4ccccc34)c2)cc1C [Compound B302]
8 | 1410 nM |  | 2480 nM | O=C(Nc1ccc(OCCN2CCOCC2)c2ccccc12)c1cc(Cl)nc(N2CCOCC2)c1 [Compound B305]
9 | 2 nM and 2.2 nM |  | 48.3 nM | CN(C)CC(C)(C)CNc1nccc(Oc2ccc(NC(=O)c3cc(F)cc(OC4CCCCC4)c3)c3ccccc23)n1 [Compound B313]
10 | 1 nM |  | 41.2 nM | Cc1cc(F)ccc1-c1cccc(C(=O)Nc2ccc(Oc3ccnc(NCC(C)(C)CN(C)C)n3)c3ccccc23)c1 [Compound B314, 4′-Fluoro-2′-methyl-biphenyl-3-carboxylic acid {4-[2-(3-dimethylamino-2,2-dimethyl-propylamino)-pyrimidin-4-yloxy]-naphthalen-1-yl}-amide]
11 | 1200 nM |  | 879 nM | O=C(Nc1ccc(CN2CCOCC2)c2ccccc12)c1cc(F)cc(N2CCOCC2)c1 [Compound B316, 3-Fluoro-5-morpholin-4-yl-N-(4-morpholin-4-ylmethyl-naphthalen-1-yl)-benzamide]
12 | 9.9 nM |  | 23.8 nM | CN(C)CC(C)(C)CNc1nccc(Oc2ccc(NC(=O)c3cc(F)cc(N4CCOCC4)c3)c3ccccc23)n1 [Compound B317, N-{4-[2-(3-Dimethylamino-2,2-dimethyl-propylamino)-pyrimidin-4-yloxy]-naphthalen-1-yl}-3-fluoro-5-morpholin-4-yl-benzamide]
13 | 10.5 nM |  | > 1000 nM | CCOC(=O)N1CCN(c2nccc(Oc3ccc(NC(=O)c4cc(F)cc(N5CCOCC5)c4)c4ccccc34)n2)CC1 [Compound B329, Ethyl-4-[4-({4-[(3-fluoro-5-morpholin-4-ylbenzoyl)amino]-1-naphthyl}oxy)pyrimidin-2-yl]piperazine-1-carboxylate]
14 | 51.5 nM |  | > 1000 nM | N#CNc1nccc(Oc2ccc(NC(=O)c3cc(F)cc(N4CCOCC4)c3)c3ccccc23)n1 [Compound B330, N-(4-{[2-(Cyanoamino)pyrimidin-4-yl]oxy}-1-naphthyl)-3-fluoro-5-morpholin-4-ylbenzamide]
15 | 3.9 nM |  | 92.6 nM | COCC(C)Nc1nccc(Oc2ccc(NC(=O)c3cc(F)cc(N4CCOCC4)c3)c3ccccc23)n1 (centres unmarked) [Compound B353]
16 | 9.4 nM |  | 217 nM | CC(=O)N1CCN(c2nccc(Oc3ccc(NC(=O)c4cc(F)cc(N5CCOCC5)c4)c4ccccc34)n2)CC1 [Compound B354]
17 | 68.7 nM |  | 878 nM | CC1CCCN1c1nccc(Oc2ccc(NC(=O)c3cc(F)cc(N4CCOCC4)c3)c3ccccc23)n1 (centres unmarked) [Compound B355]
18 | 264 nM |  | > 1000 nM | CN(C)C(=O)[C@@H]1CCCN1c1nccc(Oc2ccc(NC(=O)c3cc(F)cc(N4CCOCC4)c3)c3ccccc23)n1 [Compound B356]
19 | 3 nM |  | 30.1 nM | COC(CNc1nccc(Oc2ccc(NC(=O)c3cc(F)cc(N4CCOCC4)c3)c3ccccc23)n1)OC [Compound B357]

Row | IC50 [1] | melting point | IC50 [2] | SMILES
20 | 3.2 nM |  | 9.5 nM | O=C(Nc1ccc(Oc2ccnc(NC[C@@H]3CCCO3)n2)c2ccccc12)c1cc(F)cc(N2CCOCC2)c1 [Compound B358]
21 | 4.2 nM |  | 104 nM | O=C(Nc1ccc(Oc2ccnc(N3CCC(CO)CC3)n2)c2ccccc12)c1cc(F)cc(N2CCOCC2)c1 [Compound B359]
22 | 22.5 nM |  | 63 nM | CCN1CCC[C@H]1CNc1nccc(Oc2ccc(NC(=O)c3cc(F)cc(N4CCOCC4)c3)c3ccccc23)n1 [Compound B360]
23 | 55.5 nM |  | 475 nM | O=C(Nc1ccc(Oc2ccnc(N3CCC(F)(F)CC3)n2)c2ccccc12)c1cc(F)cc(N2CCOCC2)c1 [Compound B361]
24 | 20.9 nM |  | 674 nM | CN(CCO)c1nccc(Oc2ccc(NC(=O)c3cc(F)cc(N4CCCCC4)c3)c3ccccc23)n1 [Compound B373]
25 | 107 nM |  | > 1000 nM | O=C(Nc1ccc(Oc2ccnc(N3CCCCC3)n2)c2ccccc12)c1cc(F)cc(N2CCCCC2)c1 [Compound B375, 3-Fluoro-5-piperidin-1-yl-N-{4-[(2-piperidin-1-ylpyrimidin-4-yl)oxy]-1-naphthyl}benzamide]
26 | 1.8 nM |  | 26.2 nM | O=C(Nc1ccc(Oc2ccnc(NCC3CCCO3)n2)c2ccccc12)c1cc(F)cc(N2CCCCC2)c1 (centres unmarked) [Compound B386, 3-Fluoro-5-piperidin-1-yl-N-[4-({2-[(tetrahydrofuran-2-ylmethyl)amino]pyrimidin-4-yl}oxy)-1-naphthyl]benzamide]
27 | 207 nM |  | > 1000 nM | CC1CC(C)CN(c2nccc(Oc3ccc(NC(=O)c4cc(F)cc(N5CCCCC5)c4)c4ccccc34)n2)C1 (centres unmarked) [Compound B391]
28 | 16.8 nM |  | 715 nM | O=C(Nc1ccc(Oc2ccnc(N3CCC(O)C3)n2)c2ccccc12)c1cc(F)cc(N2CCCCC2)c1 (centres unmarked) [Compound B393]
29 | 6 nM |  | 201 nM | CC(C)Nc1nccc(Oc2ccc(NC(=O)c3cc(F)cc(N4CCCCC4)c3)c3ccccc23)n1 [Compound B396, 3-Fluoro-N-(4-{[2-(isopropylamino)pyrimidin-4-yl]oxy}-1-naphthyl)-5-piperidin-1-ylbenzamide]
30 | 12.7 nM |  | 136 nM | O=C(Nc1ccc(Oc2ccnc(NC3(CO)CCCC3)n2)c2ccccc12)c1cc(F)cc(N2CCCCC2)c1 [Compound B399, 3-Fluoro-N-{4-[(2-{[1-(hydroxymethyl)cyclopentyl]amino}pyrimidin-4-yl)oxy]-1-naphthyl}-5-piperidin-1-ylbenzamide]
31 | 25.6 nM |  | 1100 nM | CCOC(=O)N1CCC(Nc2nccc(Oc3ccc(NC(=O)c4cc(F)cc(N5CCCCC5)c4)c4ccccc34)n2)CC1 [Compound B401, Ethyl-4-{[4-({4-[(3-fluoro-5-piperidin-1-ylbenzoyl)amino]-1-naphthyl}oxy)pyrimidin-2-yl]amino}piperidine-1-carboxylate]
32 | 19.6 nM |  | 117 nM | O=C(Nc1ccc(Oc2ccnc(NC3CCS(=O)(=O)C3)n2)c2ccccc12)c1cc(F)cc(N2CCCCC2)c1 (centres unmarked) [Compound B406]
33 | 1.8 nM |  | 68.7 nM | CN1CCC(Nc2nccc(Oc3ccc(NC(=O)c4cc(F)cc(N5CCCCC5)c4)c4ccccc34)n2)CC1 [Compound B409, 3-Fluoro-N-[4-({2-[(1-methylpiperidin-4-yl)amino]pyrimidin-4-yl}oxy)-1-naphthyl]-5-piperidin-1-ylbenzamide]
34 | 36.3 nM |  | > 1000 nM | CN(C(=N)N)c1nccc(Oc2ccc(NC(=O)c3cc(F)cc(N4CCCCC4)c3)c3ccccc23)n1 [Compound B413]
35 | 6.1 nM |  | 162 nM | O=C(Nc1ccc(Oc2ccnc(N3CCC(CO)CC3)n2)c2ccccc12)c1cc(F)cc(N2CCCCC2)c1 [Compound B415, 3-Fluoro-N-[4-({2-[4-(hydroxymethyl)piperidin-1-yl]pyrimidin-4-yl}oxy)-1-naphthyl]-5-piperidin-1-ylbenzamide]
36 | 12.7 nM |  | 336 nM | CC1=NCCN1c1nccc(Oc2ccc(NC(=O)c3cc(F)cc(N4CCCCC4)c3)c3ccccc23)n1 [Compound B417, 3-Fluoro-N-(4-{[2-(2-methyl-4,5-dihydro-1 H-imidazol-1-yl)pyrimidin-4-yl]oxy}-1-naphthyl)-5-piperidin-1-ylbenzamide]
37 | 3 nM |  | 55.4 nM | CCN1CCC[C@H]1CNc1nccc(Oc2ccc(NC(=O)c3cc(F)cc(N4CCCCC4)c3)c3ccccc23)n1 [Compound B419, N-(4-{[2-({[(2S)-1-Ethylpyrrolidin-2-yl]methyl}amino)pyrimidin-4-yl]oxy}-1-naphthyl)-3-fluoro-5-piperidin-1-ylbenzamide]
